{
  "source": "Sander's compilation of Henry's law constants (doi:10.1002/etc.5620111109)",
  "data": [
    {"experiment": "Henry solubility constant Hcp at 298.15 K (mol/(m3 Pa))", "details": "reference: ten Hulscher et al. (1992)", "values": [
      {"smiles": "c1cc2ccc3ccc4ccc5cccc6c(c1)c2c3c4c56", "note": "[benzo[ghi]perylene]", "Henry solubility constant Hcp": 30},
      {"smiles": "c1ccc2cc3c(cc2c1)-c1cccc2cccc-3c12", "note": "[benzo[k]fluoranthene]", "Henry solubility constant Hcp": 17},
      {"smiles": "c1ccc2c(c1)-c1cccc3cccc-2c13", "note": "[benzo[jk]fluorene]", "Henry solubility constant Hcp": 1.1},
      {"smiles": "Clc1ccc(Cl)c(-c2cc(Cl)ccc2Cl)c1", "note": "[2,2',5,5'-tetrachlorobiphenyl]", "Henry solubility constant Hcp": 0.042},
      {"smiles": "c1ccc2c(c1)-c1ccc3ccc4cccc5cc-2c1c3c45", "note": "[indeno[1,2,3-cd]pyrene]", "Henry solubility constant Hcp": 28},
      {"smiles": "Clc1ccc(Cl)c(-c2ccccc2)c1", "note": "[2,5-dichlorobiphenyl]", "Henry solubility constant Hcp": 0.023},
      {"smiles": "c1ccc2c(c1)cc1ccc3cccc4ccc2c1c34", "note": "[benzo[a]pyrene]", "Henry solubility constant Hcp": 22},
      {"smiles": "c1ccc2c(c1)-c1cccc3c1c-2cc1ccccc13", "note": "[benzo[b]fluoranthene]", "Henry solubility constant Hcp": 15}
    ]},
    {"experiment": "Henry solubility constant Hcp at 293 K (mol/(m3 Pa))", "details": "reference: ten Hulscher et al. (1992)", "values": [
      {"smiles": "Clc1cccc(Cl)c1Cl", "note": "[1,2,3-trichlorobenzene]", "Henry solubility constant Hcp at 293 K": 0.014},
      {"smiles": "Clc1cc(Cl)c(Cl)c(Cl)c1", "note": "[1,2,3,5-tetrachlorobenzene]", "Henry solubility constant Hcp at 293 K": 0.01},
      {"smiles": "Clc1cc(Cl)cc(Cl)c1", "note": "[1,3,5-trichlorobenzene]", "Henry solubility constant Hcp at 293 K": 0.0052}
    ]}
  ]
}
